Measured values as given in patent publication US20260053847A1, “HYDROGEN-GAS-CONTAINING DRUG FOR CAUSAL TREATMENT OF ALZHEIMER'S DISEASE (DISEASE-MODIFYING DRUG)” (H2 GLOBAL GROUP S.R.O., priority 2022, published 2026).
Like-named read-outs stand apart in the source and are kept apart here.

Experiments:
[1] = system: patients with Alzheimer's disease; conditions: for DTI area at FA value of 0.2 (neural quality): FIG. 3; for normalised DTI value FA=0.2/FA=0.1, statistical analysis: Student's t-test
Experimental: (§1) For explanation, we note that MRIs of the brain were performed • at the radiology department of Nishijima Hospital and the results were sent to the doctors via an electronic charting system. Digital tractographic imaging was performed using Neuro3D and GRAPPA technology, with five starting points set at locations where nerve bundles passed through the entire hippocampus. DTI was obtained at fractional anisotropy (FA) values of 0.1 and 0.2. The size of the pathway (tract) was calculated from the number of pixels in the pathway (tract) display, the number of pixels was calculated using Image J software. DTI at a fractional anisotropy (FA) value of 0.1 reflects visualization of the neuron as a whole, DTI reflects at a fractional anisotropy (FA) value of 0.2 • to the neural quality of the height visualisation.
For example, the progression of nerve fibers in the hippocampal region of the temporal lobe of the subject's brain can be monitored using diffusion tensor imaging [DTI] and the area of nerve fibers monitored can be analyzed using the process procedures described below. • i) the process of generating a diffusion tensor imaging [DTI] image extracted from the course of nerve fibers in the hippocampal region of the temporal lobe of the subject's brain; • ii) the process of setting five control inputs at regular intervals so that the nerve fiber pathways extracted by process (i) pass through them; • iii) a process in which the fractional anisotropy (FA) is set to 0.2 and an image of the extracted nerve fibers in the hippocampus region is obtained; • iv) a process in which the area of the nerve fiber path is calculated from the number of pixels in the image obtained during the process iii); • v) the process of detecting the manifestations of dementia or predementia based on the measured values of the area of nerve fiber pathways.
In the method described above, the hippocampal region refers to the hippocampal region and the parahippocampal gyrus region; the extracted images of nerve fibers in the hippocampal region are from the lateral and axial views.
When the fractional anisotropy (FA) value is set to 0.1, the extracted image of nerve fibers in the hippocampus region is obtained, and in the process of calculating the area of nerve fiber pathways from the number of pixels in a given image, the area of nerve pathways at FA 0.2 is divided by the area of nerve pathways at FA 0.1 to calculate the FA ratio (normalization).
(§2) A mixture of hydrogen gas 3% (v/v) and oxygen gas 21% (v/v) was administered to 8 patients with Alzheimer's disease for 1 hour 2× per day. Inhalation was continued for a period of 6 months, after which hydrogen gas inhalation was discontinued and progress monitored.
(§3) Treatment efficacy was assessed by clinical assessment using ADAS-cog and neural quality (integrity) was assessed by MRI using DTI.
For a more accurate quantitative analysis, normalization was performed for each measurement. Data variability was corrected by dividing the F=0.2 value by the simultaneous F=0.1 value. The number of pixels in the corresponding neuronal bundle pathway at FA=0.2 was normalized (divided) by the number of pixels at FA=0.1, and the mean and standard error were obtained from the normalized values from 4 lateral and axial images from the right and left hemispheres of each patient. Statistical significance was assessed by Student's t-test, * indicates outputs for p¿ 0.05, ** for p¿ 0.01, indicating significant statistical significance of the results.

[2] = Phase I clinical trials; cited from earlier work
[3] = system: patient with a severe form of Alzheimer's disease with incontinence of stool and urine; conditions: one patient
Experimental: (§4) A patient with a severe form of Alzheimer's disease with incontinence of stool and urine was given an inhaled gas mixture containing 3% (v/v) hydrogen gas and 21% (v/v) oxygen gas 2× daily for one hour.
In more detail, the patient was a person who was diagnosed with typical Alzheimer's disease in 2011 and was administered Alzheimer's drugs such as Donepezil, Galantamine, Lithium, etc. The condition was progressively worsening, the ADAS-cog score was 48/70, it was a severe form of Alzheimer's disease.
The patient was unable to recall their date of birth at that time, but was able to walk to the toilet to urinate or defecate on their own. Due to the rapid deterioration of their condition, other treatments were not possible, so hydrogen gas inhalation was started as an adjunctive/complementary therapy on Apr. 19, 2019.

[4] = system: test subjects with the alipoprotein E4 (APOE4) genotype exhibiting mild cognitive impairment (MCI); conditions: APOE4 genotype subgroup of randomized clinical trials; Patent Document 1; cited from earlier work
[5] = system: patients with Alzheimer's disease; conditions: for changes in ADAS-cog scores versus control group not inhaling hydrogen gas: FIG. 2
Experimental: The ADAS-cog assesses and scores word list equipment, speaking ability, verbal comprehension, speech difficulties in spontaneous speech, completion of commands, object and finger naming, constructional tasks, ideomotor skills, orientation, word recognition, and ability to reproduce test instructions. The range of scores is from 0 to 70, the higher the score, the greater the cognitive impairment (normal→several).
as §2, §3
Statistical significance was assessed by Student's t-test, * indicates outputs for p¿ 0.05, ** for p¿ 0.01, indicating significant statistical significance.

[6] = system: patient with a severe form of Alzheimer's disease; conditions: one patient
Experimental: as §1, §4
The neural quality was assessed using advanced magnetic resonance imaging technology using the diffusion tensor imaging procedure.

SMILES: [HH] [hydrogen gas, Molecular hydrogen]
- normalised DTI value FA=0.2/FA=0.1 ([1]; 1 year after end of treatment, compared with pre-treatment condition, FIG. 4): beneficial effect, compared with the pre-treatment condition, persisting
- DTI area at FA value of 0.2 (neural quality) ([1]; 6 months after cessation of hydrogen gas inhalation): persisted
- normalised DTI value FA=0.2/FA=0.1, statistical analysis ([1]; 6 months after the end of treatment, FIG. 4): significant effect persisting
- DTI area at FA value of 0.2 (neural quality) ([1]; after 6 months of continuous hydrogen gas inhalation, 9 patients as printed): neural quality was improved
- normalised DTI value FA=0.2/FA=0.1, statistical analysis ([1]; after 6 months of inhalation, FIG. 4): significant effect
- DTI area at FA value of 0.2 (neural quality) ([1]; one year after the end of inhalation, compared with start of inhalation): able to maintain a favorable result compared with the condition at the start of inhalation
- safety of hydrogen gas inhalation [2]: safety of hydrogen gas inhalation has been confirmed
- ability to urinate and defecate (incontinence of stool and urine) ([3]; ADAS-cog 48/70, 3% (v/v) hydrogen + 21% (v/v) oxygen 2x daily for one hour, after two years of inhalation): able to urinate and defecate on their own
- fecal incontinence, frequency or severity of difficulties ([3]; January 2020, inhalation started Apr. 19, 2019): no improvement in the frequency or severity of difficulties
- independent defecation ([3]; since Nov. 18, 2020, inhalation started Apr. 19, 2019): able to go and defecate on their own in almost all cases
- condition of subjects with mild cognitive impairment [4]: improved the condition
- changes in ADAS-cog scores versus control group not inhaling hydrogen gas ([5]; 6 months after cessation of inhalation, control 19 patients from past data): improvement persisted
- average change in clinical symptoms assessed by ADAS-cog (cognitive function) ([5]; 8 patients, hydrogen gas 3% (v/v) + oxygen 21% (v/v), 1 hour 2x per day, continuous inhalation for 6 months, FIG. 1): an initial deterioration, but soon showed an improvement in cognitive function
- average change in clinical symptoms assessed by ADAS-cog (cognitive impairment) ([5]; 8 patients, six months or one year after cessation of 6-month inhalation, compared to before treatment, FIG. 1): marked improvement in cognitive impairment
- statistical significance of effect on ADAS-cog versus control and on normalised DTI ([5]; after hydrogen gas inhalation, FIGS. 2 and 4): statistically significant effect
- changes in ADAS-cog scores versus control group not inhaling hydrogen gas ([5]; one year after cessation of treatment, compared to pre-treatment status): the improvement persisted compared to the pre-treatment status
- DTI display at FA=0.2 (qualitative neural quality) ([6]; FIG. 5D): new nerves have appeared
- area of nerve fibers visualized in the DTI at FA=0.2 ([6]; after 2 years of inhalation, FIG. 5): increased
- changes in DTI over time (effect of inhalation) ([6]; after 6 months of hydrogen gas inhalation, FIG. 5): the effect did not appear
- number of pixels (DTI area) at F=0.1 and F=0.2 ([6]; after two years of inhalation (29 to 53 months), FIG. 6): slight increase in the number of pixels
